Results: patent US10294457B2, “Maturation of hepatocyte-like cells derived from human pluripotent stem cells” (Takara Bio Europe AB, priority 2012, dated 2019)

Assays:
RAR = settings: Allenby et al.; Idres et al.; cited from earlier work
[1] = tested on: DE derived from hPSC lines P11032, SA181 and P11012; experiment: qRT-PCR of stem cell and DE markers in DE, 5-aza-2-deoxycytidine or 5-azacytidine (Example 12); format: cell-based, human; settings: 10 nM 5-aza-2-deoxycytidine or 1 μM 5-azacytidine on day 2-3; day 7
Description: Following the basic protocols C (P11032, SA181) or D (P11012), cells derived from 3 different hPSC lines were treated with either 10 nM 5-aza-2-deoxycytidine or 1 μM 5-azacytidine on day 2-3 during the pre-endodermal phase.

[2] = tested on: hepatocyte-like cells derived from hES cells; experiment: HNF4α TaqMan assays: HNF4α isoform expression after 9 cis-retinoic acid (Example 3); format: cell-based, human; settings: for expression of the adult HNF4a1-3 isoforms / expression of the fetal HNF4a4-9 isoforms: 1 or 2 μM
Description: Three different HNF4α-TaqMan assays were used for analysis of HNF4α expression: one assay detecting all 9 HNF4α isoforms, one assay detecting isoforms 1-3 (including the adult isoforms 1 and 2) and one assay detecting isoforms 4-9 (including the fetal isoforms 7 and 8). Isoforms 3, 4, 5, 6 and 9 are not expressed at all in vivo or at very low levels and can therefore be neglected.

[3] = tested on: hES cell derived hepatocyte-like cells; experiment: qRT-PCR gene expression after RA treatment, basic protocol A (Example 5)
Description: Following the basic protocol A, hES cell derived hepatocyte-like cells cultured on a Gelatin-based coating were treated with 1 μM 9-cis retinoic acid for 5 hr on day 21 of the protocol (i.e. on day 7 of the differentiation and maturation phase) or 24 hr on day 22-23 of the protocol (i.e. on day 8-9 of the differentiation and maturation phase).
Cells were harvested on day 21 or 23 of the protocol (i.e. on day 7 or 9 of the differentiation and maturation phase) and gene expression was analysed using qRT-PCR, normalised to the house-keeping gene CREBBP and the results presented as relative quantification normalised to a calibrator (FIG. 3.)

RXR = settings: cited from earlier work; for affinity of binding to RXR: compared with 9-cis-retinoic acid (Heyman et al.)
hESC-derived hepatocytes [4] = tested on: hESC-derived hepatocytes
Description: Following the basic protocol A, differentiating hES cell derived hepatic progenitors and hepatocyte-like cells cultured on a Gelatin-based coating were treated with 1 μM 9-cis retinoic acid for 5, 24 or 48 hr exposures on days 21, 22 or 23 of the protocol (i.e. on day 7, 8 or 9 of the differentiation and maturation phase; FIG. 2 A, B, D), repeated 5 hr exposures on days 11, 16, 23, 25 and 30 of the protocol (i.e. on day 4 of the pre-hepatic phase and days 2, 9, 11 and 16 of the differentiation and maturation phase; FIG. 2 C), or long term/continuous treatment from day 14 and onwards (i.e.starting on day 1 of the differentiation and maturation phase; FIG. 2D).
Immediately after end of the RA treatment, the cell cultures are subjected to a CYP activity assay according to the following protocol: Cells are washed twice with warm Williams medium E w/o phenol red (+0.1% PEST). Then CYP activity assay, consisting of warm Williams medium E w/o phenol red (+0.1% PEST), 2 mM L-Glutamine, 25 mM HEPES, 26 μM Phenacetin (model substrate for CYP1A), 9 μM Diclofenac (model substrate for CYP2C9) and 3 μM Midazolam (model substrate for CYP3A), is added to the cells (e.g. 220 μl/24 well) and incubated for 16 hr at 37° C. Then supernatant is collected and centrifuged for 20 min at 10.000 rcf at 4° C. Subsequently, 120 μl of the supernatant is transferred into a 96 well plate which is sealed with a tight seal tape and stored at −20 or −80° C. until LC/MS-analysis of metabolite formation: Acetaminophen (Paracetamol) for CYP1A, OH-Diclofenac for CYP2C9 and OH-Midazolam for CYP3A.

[5] = tested on: hiPSC-derived hepatocytes; experiment: CYP activity assay, 9cis-RA or other RXR- and RAR-agonists (Example 15); format: cell-based, human; settings: instead of 0.2 μM 9cis-RA: 0.5 μM ATRA, 5 μM AM580, 0.2 μM 13cis-RA, 5 μM LGD1069, 5 μM LG100268 or 5 μM SR11237; with Kenpaullone, overlay, early 5-aza-2-deoxycytidine; day 36
Description: Some experimental groups were treated with 0.5 μM all trans-retinoic acid (ATRA), 5 μM AM580, 0.2 μM 13cis-RA, 5 μM LGD1069, 5 μM LG100268 or 5 μM SR11237 instead of 0.2 μM 9cis-RA.

[6] = tested on: hiPSC-derived hepatocytes; experiment: CYP activity assay, early 5-aza-2-deoxycytidine plus late RA, Kenpaullone and matrix overlay (Example 8); format: cell-based, human; settings: additional effect of treatment with the DNA demethylation agent on day 2-3
Description: (§1) Following the basic protocols C (hESC-derived hepatocytes) or D (hiPSC-derived hepatocytes), differentiating hES and hiPS cells in the pre-endodermal phase were treated with 10 nM of the DNA demethylating agent 5-aza-2-deoxycytidine for 24 hr on day 2 to 3 of the protocol.
(§2) Later in the protocol, hPS cell derived hepatic progenitor cells and hepatocyte-like cells cultured on a Fibronectin-based coating were treated with continuous/long term treatment with 0.2 μM 9cis-RA and 0.5 μM Kenpaullone starting on day 14 of the protocol (i.e. on day 1 of the differentiation and maturation phase) and received thin Fibronectin-Collagen I-overlays on day 14 and 16 of the protocol (i.e. on day 1 and 3 of the differentiation and maturation phase) and is refreshed thereafter once a week on day 23, 30, 37 and so on (i.e. on day 9, 16, 23 and so on of the differentiation and maturation phase).
(§3) For analysing functional expression of CYP enzymes on day 36 (i.e. on day 22 of the maturation step; FIG. 10), the cell cultures are subjected to a CYP activity assay according to the following protocol: Cells are washed twice with warm Williams medium E w/o phenol red (+0.1% PEST). […]

hESC-derived hepatocytes [7] = experiment: as above; format: cell-based, human; settings: additional effect of treatment with the DNA demethylation agent on day 2-3
Description: as §1, §2, §3

[8] = 24-, 48 hr-exposure and continuous RA-treatment
[9] = 5 hr RA-exposure, day 23, analysed immediately after the exposure
[10] = continuous/long-term RA treatment versus 5 and 24 hr RA exposures

Compound: CC1=C(\C=C/C(C)=C/C=C/C(C)=C/C(=O)O)C(C)(C)CCC1 [7-cis retinoic acid]
- binding to RAR and RXR (RAR): specifically bind RAR, but not to RXR

Compound: Nc1ncn([C@@H]2O[C@H](CO)[C@@H](O)[C@H]2O)c(=O)n1 [5-azacytidine]
- Oct4 and Nanog mRNA [1]: significantly decreased
- mRNA expression of the DE markers Sox17 and Cxcr4 [1]: No significant changes

Compound: 9-cis-retinoic acid [RA]
- expression of the adult HNF4a1-3 isoforms [2, 8]: slightly increase
- expression of the fetal HNF4a4-9 isoforms [2, 8]: slightly decrease
- expression of the adult HNF4a1-3 isoforms [2, 9]: strongly increase
- expression of the fetal HNF4a4-9 isoforms [2, 9]: increase
- expression of fetal HNF4α isoform (4-9) ([2]; 5 hr exposure with 1 μM RA, 7 days later): raised over control values
- expression of HNF4α isoforms 1-3 ([2]; 5 hr exposure with 1 μM RA, 7 days later, vs untreated control cells): slightly lower
- expression of HNF4α isoforms 1-3 ([2]; 5 hr exposure with 1 μM RA, immediately after the exposure): increases
- expression of HNF4α isoforms 4-9 ([2]; 5 hr exposure with 1 μM RA, immediately after the exposure, vs control): slightly lower
- ratio of HNF4a 1-3 isoforms/4-9 isoforms ([2]; 5 hr exposures): do not increase
- ratio of HNF4a 1-3 isoforms/4-9 isoforms ([2]; 24 hr and 48 hr RA-exposure and long term/continuous treatment): increase the 1-3/4-9 ratio of hESC-derived hepatocytes to levels similar as in hp hep
- mRNA expression of the adult hepatic gene CYP3A4 ([3]; 5 hr RA-exposure (1 μM) on day 21, immediately after and 2 and 7 days later (day 23 and 30)): increase
- decrease of expression of the fetal hepatic gene CYP3A7 ([3]; 5 hr exposure on day 21, 2 days later on day 23): strongly
- decrease of expression of the fetal hepatic gene CYP3A7 ([3]; 5 hr exposure on day 21, immediately after the exposure on day 21): slightly
- increase of mRNA expression of the adult hepatic gene PXR ([3]; 5 hr exposure on day 21, measured on day 21): not immediately after the 5 hr exposure
- mRNA expression of the adult hepatic gene PXR ([3]; 5 hr exposure on day 21, measured on day 23): increases
- mRNA expression of the adult hepatic gene PXR ([3]; 24 hr RA-exposure on day 22-23): increases
- adult CYP3A4 expression ([3]; 24 hr RA-exposure on day 22-23, day 23): immediate up-regulation
- expression of the fetal hepatic gene CYP3A7 ([3]; 24 hr RA-exposure on day 22-23, immediately after the exposure on day 23): strongly decreases
- fetal hepatic gene α-Fetoprotein (AFP) expression [3, 10]: stronger down-regulation
- mRNA expression of the adult hepatic gene CAR [3, 10]: higher increase
- binding to and activation of RXR and RAR (RXR; Allenby et al., Idres et al.): binds to and activates both RXR and RAR
- CYP1A activity (hESC-derived hepatocytes [4]): strongest increase
- CYP1A, 2C9 and 3A activities (hESC-derived hepatocytes [4]): increased
- CYP1A, CYP2C9 and 3A activities (hESC-derived hepatocytes [4]): increase
- CYP1A-, 2C9- and 3A-activity (hESC-derived hepatocytes [4]): significant increase
- CYP1A-activity (hESC-derived hepatocytes [4]): increase
- CYP3A activity (hESC-derived hepatocytes [4]): strongest increase
- effect on CYP1A and 2C9 activity (hESC-derived hepatocytes [4]): stronger increasing effect

Compound: CC1=C(/C=C/C(C)=C/C=C/C(C)=C/C(=O)O)C(C)(C)CCC1 [ATRA, all trans-retinoic acid]
- CYP2C9 activity [5]: slightly smaller increase
- binding to RAR and RXR (RAR): specifically bind RAR, but not to RXR
- affinity of binding to RXR (RXR): much lower affinity

Compound: C=C(c1ccc(C(=O)O)cc1)c1cc2c(cc1C)C(C)(C)CCC2(C)C [LGD1069]
- CYP2C9 activity [5]: slightly smaller increase

Compound: CC1=C(/C=C/C(C)=C/C=C\C(C)=C\C(=O)O)C(C)(C)CCC1 [11-cis-retinoic acid]
- binding to RAR and RXR (RAR): specifically bind RAR, but not to RXR
- affinity of binding to RXR (RXR): much lower affinity

Compound: Nc1ncn([C@H]2C[C@H](O)[C@@H](CO)O2)c(=O)n1 [5-aza-2-deoxycytidine]
- CYP2C9 activity [6]: No additional increase
- CYP2C9 activity (hESC-derived hepatocytes [7]): No additional increase

Compound: CC1=C(/C=C/C(C)=C/C=C/C(C)=C\C(=O)O)C(C)(C)CCC1 [13cis RA, 13-cis-retinoic acid]
- binding to RAR and RXR (RAR): specifically bind RAR, but not to RXR
- affinity of binding to RXR (RXR): much lower affinity
